Source: patent publication US20050075276A1, “Use of inhibitors of glycogen synthase-3 to augment CD28 dependent -T-cell responses” (priority 2003, published 2005)

What was measured:
Peripheral T-cells = experiment: T-cell proliferation in response to tumor cell line K562 (3H-thymidine incorporation); format: cell-based, human; conditions: 48 hours, mitomycin C treated K562; FIG. 4
Experimental: (§1) Peripheral blood lymphocytes (PBLs) were isolated by Ficoll gradient centrifugation from Buffy coats, or from blood samples (60-120 cc) taken from healthy volunteers. Leukemic cells K562 were first treated with 50 ug/ml Mitomycin C (Sigma) for 1 hour in 5% CO2 incubator at 37° C. and then washed at least three times with RPMI 1640 to remove the presence of drug. Washed K562 cells and PBLs (1:5 ratio) were then resuspended in RPMI 1640 with 5% fetal calf serum, 1% penicillin-streptomycin and 1% L-glutamine. PBLs and leukemic cells were transferred into 24 well plate. […] Occassionally, PBLs would be preincubated with inhibitor for periods of time (i.e. 5-24 hours) prior to incubation with K562 cells. In either case, cell cultures were then allowed to incubate for 8 days in 5% CO2 incubator at 37° C. prior to an assessment of cytotoxic function. Over this period, the K562 cells die due to the treatment with mitomycin c.

K562 cells = experiment: Cytolytic T-cell (CTL) killing of K562 cells, CytoTox96 assay; format: cell-based, human; conditions: for potentiation of cytolytic T-cell response: 6 days co-culture, FIG. 5A
Experimental: Cytotoxic activity was also measured and combined with a control where cultures were treated with anti-CD28 mAbs (5 μg/ml). After 6 days, cytolytic T-cells were harvested, washed twice and co-cultured with fresh K562 cells. Cytotoxcity was measured by the CytoTox96 non-radioative cytotoxicity assay from Promega (Southampton, UK).
as §1
For an assessment of cytotoxity, effector cells (PBLs) and fresh target cell K562 were added into 96 well plates at various ratios (50:1; 25:1 etc.). Culture medium, effector cells and target cells were added into separate wells as background controls. Cytotoxicity was assessed using a Cytotoxicity Assay kit (Promega) as outlined by the manufacturer.
Cytotoxicity was measured by CytoTox96® assay.

Structure (SMILES) | increase in level of proliferative response to K562 (Peripheral T-cells) | potentiation of cytolytic T-cell response (K562 cells; 10 um, 50:1 effector target ratio) | potentiation of cytolytic T-cell response (K562 cells; 50 um, 25:1 ratio) | effect on cytolytic T-cell (CTL) killing of K562 cells (K562 cells; FIG. 6, inhibitor added at 1 mM and 5 mM)
O=C1NC(=O)C(c2ccccc2[N+](=O)[O-])=C1Nc1ccc(O)c(Cl)c1 [SB415286] | two-three fold | 5-6 fold | 5-6 fold | 
[Cl-].[Li+] [Lithium Chloride] |  |  |  | enhances
